Measured values: patent US9821018B2, “Composition comprising Raphanus, Theobroma and Passiflora for treating opioid and alcohol abuse” (priority 2012, dated 2017)
Where a name gives a salt, the structure may show the parent alone.

Legend:
[1] = tested on: PTZ-induced convulsions; details: mice, i.p.; safranal 0.15 and 0.35 ml/kg body weight, crocin 22 mg/kg; cited from earlier work
[2] = tested on: morphine-induced place preference; details: i.p.; extract 10, 50 and 100 mg/kg, safranal 1, 5 and 10 mg/kg; cited from earlier work
[3] = tested on: brain dopamine; assay: brain dopamine concentration by ELISA; format: in vivo, Male Wistar rats; details: i.p., 30 min after injection; fluoxetine 10 mg/kg, desipramine 50 mg/kg, Raphanus extract up to 256 mg/kg (most potent)
Procedure: (§1) Male Wistar rats (250-300 g, Amman-Jordan) were used throughout the study (8 rats for each experiment). Animals were housed in groups of 4/cage in a 12/12 h light-cycle (lights on at 07.00 a.m.), with ad-lib food and water available. The animals were randomly allocated to different groups of the experiment. All experiments were conducted in accordance with standard ethical guidelines and approved by the local ethical Committee University of Medical Committee on the Use and Care of Animals, 81/021, Jul. 10, 2011 (Petra University, Amman, Jordan)).
(§2) Fluoxetine hydrochloride [N-methyl-3-[(4-trifluoromethyl) phenoxy]-3-phenylpropylamine hydrochloride] and desipramine hydrochloride [10-11-dihydro-N-methyl-5H-dibenz (Z) [b, f] azepine-5-propanamine hydrochloride] (TOCRIS Bioscience, UK) were dissolved in sterile saline and administered intraperitoneally at a concentration of 1 ml/kg; the extract was prepared immediately before use. The control groups were administered saline.
(§3) The Raphanus sativus extract used was prepared in Jordan. To prepare the extract, 100 g of dried and milled […] was extracted with 1000 ml distilled water by maceration. […] The extract was dissolved in normal saline and immediately administered to the animals. […]

[4] = tested on: brain serotonin; assay: brain serotonin concentration by ELISA; format: in vivo, Male Wistar rats; details: i.p., 30 min after injection; fluoxetine 10 mg/kg, desipramine 50 mg/kg, Raphanus extract 2-256 mg/kg; vs saline
Procedure: as §1, §2, §3

| SMILES | anticonvulsant activity [1] | acquisition and expression of morphine CPP [2] | dopamine concentration in the brain [3] | brain serotonin levels [4] |
| --- | --- | --- | --- | --- |
| CC(/C=C/C=C(\C)C(=O)O[C@@H]1O[C@H](CO[C@@H]2O[C@H](CO)[C@@H](O)[C@H](O)[C@H]2O)[C@@H](O)[C@H](O)[C@H]1O)=C\C=C\C=C(C)\C=C\C=C(/C)C(=O)O[C@@H]1O[C@H](CO[C@@H]2O[C@H](CO)[C@@H](O)[C@H](O)[C@H]2O)[C@@H](O)[C@H](O)[C@H]1O [Crocin, crocin] | did not show anticonvulsant activity | – | – | – |
| CC1=C(C=O)C(C)(C)CC=C1 [Safranal, safranal] | reduced the seizure duration, delayed the onset of tonic convulsions, and protected mice from death | The same results were obtained | – | – |
| CNCCCN1c2ccccc2CCc2ccccc21 [desipramine, 10-11-dihydro-N-methyl-5H-dibenz (Z) [b, f] azepine-5-propanamine hydrochloride] | – | – | can increase dopamine concentration in the brain | neither desipramine nor Raphanus extract can increase brain serotonin levels |
| CNCCC(Oc1ccc(C(F)(F)F)cc1)c1ccccc1 (stereo not shown) [fluoxetine, N-methyl-3-[(4-trifluoromethyl)phenoxy]-3-phenylpropylamine hydrochloride] | – | – | can increase dopamine concentration in the brain | can increase brain serotonin levels significantly |
